The test system of this assay is P388 leukemia ip, CD2F1 mice, survival T/C. As to the kind of experiment: NCI In Vivo Anticancer Drug Screen. Data for tumor model P388 Leukemia (intraperitoneal) in CD2F1 (CDF1) mice. The following applies: endpoint: median survival time, higher = longer survival. Put shortly: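 Mice carrying the transplanted tumor received test compound or vehicle. Survival was recorded in each group, and the value is the treated-group measurement divided by that of the vehicle-treated control group.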

Setting [1] is: dose: 50.0 mg/kg/injection, schedule: Q04DX002 (ip), vehicle: saline with Tween-80.
[2] abbreviates: dose: 100.0 mg/kg/injection, schedule: Q04DX002 (ip), vehicle: saline with Tween-80.
Setting [3] is: dose: 25.0 mg/kg/injection, schedule: Q01DX009 (ip), vehicle: saline with Tween-80.
Setting [4] is: dose: 50.0 mg/kg/injection, schedule: Q01DX009 (ip), vehicle: saline with Tween-80.
Where [5] appears, read: dose: 100.0 mg/kg/injection, schedule: Q01DX009 (ip), vehicle: saline with Tween-80.
[6] abbreviates: dose: 12.5 mg/kg/injection, schedule: Q01DX009 (ip), vehicle: distilled water + Tween-80.
Setting [7] is: dose: 25.0 mg/kg/injection, schedule: Q01DX009 (ip), vehicle: distilled water + Tween-80.

Several values for one entry are separate records, joined by “and”; a condition that tells them apart may be missing. Equal entries are not always repeated. Inconclusive results and toxic doses are left out.

As for `CCN(CC)CCNc1ccc(O)c2sc3ccccc3c(=O)c12`, the T/C reads like this: (dose: 6.25 mg/kg/injection, schedule: Q01DX009 (ip), vehicle: saline + alcohol) 94 % of control; (dose: 12.5 mg/kg/injection, schedule: Q01DX009 (ip), vehicle: saline + alcohol) 89 % of control; (dose: 25.0 mg/kg/injection, schedule: Q01DX009 (ip), vehicle: saline + alcohol) 99 % of control; (dose: 50.0 mg/kg/injection, schedule: Q01DX009 (ip), vehicle: saline + alcohol) 103 % of control.
With `[Ni+2].[O-]/C(=N\N=C/c1ccco1)c1ccccc1O.[O-]/C(=N\N=C/c1ccco1)c1ccccc1O`, the T/C is, setting by setting: under setting [1], 86 % of control; under setting [2], 93 % of control; (dose: 200.0 mg/kg/injection, schedule: Q04DX002 (ip), vehicle: saline with Tween-80) 93 % of control.
For `COc1cccc2c1C(=N)c1c(O)c3c(c(O)c1C2=O)CC(O)(C(=O)CO)CC3OC1CC(N2CCOCC2C#N)C(O)C(C)O1` (configuration not stated), the T/C runs as follows: (dose: 0.25 mg/kg/injection, schedule: Q04DX003 (ip), vehicle: saline) 117 % of control; (dose: 0.5 mg/kg/injection, schedule: Q04DX003 (ip), vehicle: saline) 157 % of control; (dose: 1.0 mg/kg/injection, schedule: Q04DX003 (ip), vehicle: saline) 111 % of control and 97 % of control.
Take `Nc1ccc(S(=O)(=O)NCCSSCCNS(=O)(=O)c2ccc(N)cc2)cc1`: the T/C was 97 % of control (dose: 60.0 mg/kg/injection, schedule: Q01DX005 (ip), vehicle: saline with Tween-80); 100 % of control (dose: 120.0 mg/kg/injection, schedule: Q01DX005 (ip), vehicle: saline with Tween-80); 105 % of control (dose: 240.0 mg/kg/injection, schedule: Q01DX005 (ip), vehicle: saline with Tween-80).
As to `CCC(C)C1NC(=O)C(NC(=O)c2c3[nH]c4c(C(=O)NC5C(=O)NC(C(C)CC)C(=O)N6CCCC6C(=O)N(C)CC(=O)N(C)C(C(C)C)C(=O)OC5C)ccc(C)c4oc-3c(C)c(=O)c2=O)C(C)OC(=O)C(C(C)C)N(C)C(=O)CN(C)C(=O)C2CCCN2C1=O` (configuration not stated), the T/C is, setting by setting: (dose: 0.05 mg/kg/injection, schedule: Q01DX009 (ip), vehicle: water) 99 % of control; (dose: 0.1 mg/kg/injection, schedule: Q01DX009 (ip), vehicle: water) 104 % of control; (dose: 0.2 mg/kg/injection, schedule: Q01DX009 (ip), vehicle: water) 95 % of control; (dose: 0.4 mg/kg/injection, schedule: Q01DX009 (ip), vehicle: water) 100 % of control and 104 % of control; (dose: 0.8 mg/kg/injection, schedule: Q01DX009 (ip), vehicle: water) 101 % of control and 96 % of control; (dose: 1.6 mg/kg/injection, schedule: Q01DX009 (ip), vehicle: water) 102 % of control and 110 % of control. Moreover, the T/C by setting is: (dose: 3.2 mg/kg/injection, schedule: Q01DX009 (ip), vehicle: water) 110 % of control; (dose: 6.4 mg/kg/injection, schedule: Q01DX009 (ip), vehicle: water) 123 % of control.
Take `CCCCCCCCCCCC(=O)OCCN(C=O)C[n+]1ccccc1`: the T/C was 98 % of control (dose: 25.0 mg/kg/injection, schedule: Q04DX002 (ip), vehicle: saline); 96 % of control (dose: 50.0 mg/kg/injection, schedule: Q04DX002 (ip), vehicle: saline); 91 % of control (dose: 100.0 mg/kg/injection, schedule: Q04DX002 (ip), vehicle: saline).
Regarding `N#CC1=C(C#N)C(=O)c2ccccc2C1=O`, the T/C by setting is: under setting [3], 104 % of control; under setting [4], 104 % of control.
Regarding `CC(=O)OC1C=CCC2C(=O)C34CC=CC(OC(C)=O)C3(C(=O)c3ccccc3C4=O)C(=O)C12` (configuration not stated), the T/C reads like this: (dose: 6.25 mg/kg/injection, schedule: Q01DX009 (ip), vehicle: saline with Tween-80) 103 % of control; (dose: 12.5 mg/kg/injection, schedule: Q01DX009 (ip), vehicle: saline with Tween-80) 101 % of control; under setting [3], 120 % of control; under setting [4], 116 % of control; under setting [5], 116 % of control.
`Nc1ncnc2c1nnn2C1OC(CO)C(O)C1O` (configuration not stated): the T/C (dose: 50.0 mg/kg/injection, schedule: Q01DX009 (ip), vehicle: Klucel (hydroxypropylcellulose) (HPC)) is 157 % of control and the T/C (dose: 100.0 mg/kg/injection, schedule: Q01DX009 (ip), vehicle: Klucel (hydroxypropylcellulose) (HPC)) is 100 % of control.
Consider `CC(=O)OCC(O)CS(=O)c1ccc(C)cc1` (configuration not stated), for which the T/C by setting is: under setting [3], 100 % of control; under setting [4], 99 % of control; under setting [5], 98 % of control.
As for `CC(=O)OC(C)(C)/C=C/C(=O)[C@](C)(O)[C@H]1[C@H](O)C[C@@]2(C)[C@@H]3CC=C4[C@@H](C[C@H](O)[C@H](O)C4(C)C)[C@]3(C)C(=O)C[C@]12C`, the T/C (dose: 5.0 mg/kg/injection, schedule: Q01DX009 (ip), vehicle: saline with Tween-80) is 107 % of control; the T/C (dose: 10.0 mg/kg/injection, schedule: Q01DX009 (ip), vehicle: saline with Tween-80) is 107 % of control; the T/C (dose: 20.0 mg/kg/injection, schedule: Q01DX009 (ip), vehicle: saline with Tween-80) is 112 % of control.
As for `CCn1c(O)c(N=O)c(=O)n(CC)c1=S`, the T/C under setting [1] was 105 % of control and the T/C under setting [2] was 97 % of control.
With `OCC(O)C(O)C(O)c1nn(-c2ccccc2)c2nc3ccccc3nc12` (configuration not stated), the T/C runs as follows: (dose: 25.0 mg/kg/injection, schedule: Q01DX005 (ip), vehicle: saline with Tween-80) 94 % of control; (dose: 50.0 mg/kg/injection, schedule: Q01DX005 (ip), vehicle: saline with Tween-80) 100 % of control and 90 % of control; (dose: 100.0 mg/kg/injection, schedule: Q01DX005 (ip), vehicle: saline with Tween-80) 90 % of control; (dose: 200.0 mg/kg/injection, schedule: Q01DX005 (ip), vehicle: saline with Tween-80) 90 % of control.
Turning to `CCOC(=O)NC1CCc2ccccc2C1` (configuration not stated), the T/C runs as follows: (dose: 100.0 mg/kg/injection, schedule: Q04DX003 (ip), vehicle: Klucel (hydroxypropylcellulose) (HPC)) 98 % of control; (dose: 200.0 mg/kg/injection, schedule: Q04DX003 (ip), vehicle: Klucel (hydroxypropylcellulose) (HPC)) 108 % of control; (dose: 400.0 mg/kg/injection, schedule: Q04DX003 (ip), vehicle: Klucel (hydroxypropylcellulose) (HPC)) 95 % of control.
In the case of `CNC(=O)OCc1c(COC(=O)NC)c(-c2c(F)cccc2F)n2c1CCC2`, the T/C is 166 % of control (dose: 6.25 mg/kg/injection, schedule: Q01DX009 (ip), vehicle: water); 155 % of control under setting [6]; 108 % of control under setting [7]; 88 % of control (dose: 25.0 mg/kg/injection, schedule: Q01DX009 (ip), vehicle: water).
As to `CC[N](CC)[Ge]([CH2]C)[CH2]C.C[CH2][Ge]([CH2]C)[CH2]C`, the T/C runs as follows: (dose: 6.25 mg/kg/injection, schedule: Q01DX009 (ip), vehicle: saline) 98 % of control and 109 % of control; (dose: 12.5 mg/kg/injection, schedule: Q01DX009 (ip), vehicle: saline) 98 % of control and 109 % of control; (dose: 25.0 mg/kg/injection, schedule: Q01DX009 (ip), vehicle: saline) 109 % of control and 114 % of control; (dose: 50.0 mg/kg/injection, schedule: Q01DX009 (ip), vehicle: saline) 121 % of control; (dose: 100.0 mg/kg/injection, schedule: Q01DX009 (ip), vehicle: saline) 118 % of control.
Consider `N#Cc1ccccc1NCc1ccccc1`, for which the T/C by setting is: under setting [6], 103 % of control; under setting [7], 102 % of control; (dose: 50.0 mg/kg/injection, schedule: Q01DX009 (ip), vehicle: distilled water + Tween-80) 100 % of control and 97 % of control; (dose: 100.0 mg/kg/injection, schedule: Q01DX009 (ip), vehicle: distilled water + Tween-80) 100 % of control and 103 % of control and 92 % of control; (dose: 200.0 mg/kg/injection, schedule: Q01DX009 (ip), vehicle: distilled water + Tween-80) 94 % of control and 95 % of control (2×); (dose: 400.0 mg/kg/injection, schedule: Q01DX009 (ip), vehicle: distilled water + Tween-80) 99 % of control and 93 % of control. In addition, the T/C (dose: 600.0 mg/kg/injection, schedule: Q01DX009 (ip), vehicle: distilled water + Tween-80) is 99 % of control.
On to `N=c1oc2ccccc2cc1C(=O)NNC(=O)c1ccncc1`, for which the T/C was 96 % of control (dose: 100.0 mg/kg/injection, schedule: Q01DX001 (ip), vehicle: saline); 96 % of control (dose: 200.0 mg/kg/injection, schedule: Q01DX001 (ip), vehicle: saline); 102 % of control (dose: 400.0 mg/kg/injection, schedule: Q01DX001 (ip), vehicle: saline).

The values are drawn from PubChem BioAssay AID330 (DTP/NCI, 2004).
